From ChEMBL document CHEMBL1201862, “PubChem BioAssay data set” (2004) come the findings set out here.

Some test systems named below: SF-295; KM12; Hs-578T; IGROV-1; HCT-116; 786-0; RPMI-8226; ACHN; Malme-3M; NCI-H23; OVCAR-5; MDA-N; RXF 393; HT-29; SK-MEL-2; UACC-257; SW-620; NCI-H226; OVCAR-4.
What all share (experiment): inhibition of tumour cell growth, NCI panel, 48 h

SMILES strings stand for the structures.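 Exposure lasted 48 hours, with cells grown in 96-well plates and compounds tested at five concentrations. At the GI50, growth is halved.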 The source made the active and inactive calls. Rule as the data show it: active = GI50 up to about 1.1 µM and inactive = higher.

As for `O=[N+]([O-])C(=C(\Cl)NCCO)/C(Cl)=C(/Cl)Br`, the GI50 is 12.1 µM (inactive) in the assay with SF-295; 5.57 µM (inactive) in the assay on KM12; 6 µM (inactive) in the assay on Hs-578T; 2.77 µM (inactive) with IGROV-1; 1.61 µM (inactive) in the assay on HCT-116; 1.19 µM (inactive) with 786-0. The GI50 in the assay on RPMI-8226 was 1.48 µM (inactive); in the assay with ACHN, 2.75 µM (inactive); in the assay with Malme-3M, 1.62 µM (inactive); with NCI-H23, 2.9 µM (inactive); in the assay with OVCAR-5, 4 µM (inactive); with MDA-N it was 1.83 µM (inactive). Besides, the GI50 is 2.6 µM (inactive) in the assay with RXF 393; 1.83 µM (inactive) in the assay on HT-29; 1.03 µM (active) in the assay with SK-MEL-2; 1.87 µM (inactive) with UACC-257; 1.17 µM (inactive) in the assay with SW-620; 6.73 µM (inactive) in the assay with NCI-H226. The GI50 in the assay with OVCAR-4 is 0.716 µM (active).
Regarding `NC(=O)c1cc2ccc(O)cc2o/c1=N/NC(=O)c1ccccc1`, the GI50 in the assay on SF-295 was > 100 µM (inactive); with KM12 it was 77.1 µM (inactive); with Hs-578T, 81.3 µM (inactive); in the assay on IGROV-1 it was 46.7 µM (inactive); in the assay on HCT-116, 66.2 µM (inactive); with 786-0, 79.4 µM (inactive). Also, the GI50 in the assay on RPMI-8226 was 77.3 µM (inactive); in the assay on ACHN, 58.1 µM (inactive); with Malme-3M, 84.3 µM (inactive); in the assay on NCI-H23, 89.9 µM (inactive); with OVCAR-5, > 100 µM (inactive); in the assay with MDA-N, 72.8 µM (inactive). The GI50 in the assay with RXF 393 was 40.6 µM (inactive); with HT-29 it was > 100 µM (inactive); with SK-MEL-2, 28.2 µM (inactive); in the assay on UACC-257 it was > 100 µM (inactive); with SW-620 it was 64.3 µM (inactive); in the assay on NCI-H226, 39.4 µM (inactive). In addition, in the assay with OVCAR-4, the GI50 is > 100 µM (inactive).
Consider `O=C(CC(c1ccccc1)c1c(O)c2ccccc2oc1=O)c1ccccc1` (stereo not given), for which the GI50 in the assay on SF-295 was > 76.7 µM (inactive); in the assay with KM12, > 100 µM (inactive); in the assay with Hs-578T, > 69.5 µM (inactive); with IGROV-1, > 100 µM (inactive); in the assay on HCT-116, > 84.5 µM (inactive); in the assay on 786-0 it was > 100 µM (inactive). Besides, the GI50 was 56.1 µM (inactive) in the assay on RPMI-8226; 98.4 µM (inactive) with ACHN; > 84.9 µM (inactive) in the assay with Malme-3M; 53.3 µM (inactive) in the assay on NCI-H23; > 100 µM (inactive) in the assay with OVCAR-5; > 84.5 µM (inactive) with MDA-N. The GI50 in the assay with RXF 393 was > 53.1 µM (inactive); in the assay on HT-29 it was > 94.8 µM (inactive); in the assay on SK-MEL-2, > 92.3 µM (inactive); with UACC-257 it was > 83.9 µM (inactive); with SW-620, > 100 µM (inactive); in the assay on NCI-H226, 71.9 µM (inactive). In addition, the GI50 in the assay on OVCAR-4 is 56.1 µM (inactive).
For the compound `CN1CC=C(c2c(N)nc(N)[nH]c2=O)CC1`, the GI50 in the assay with SF-295, with KM12, with Hs-578T, in the assay with IGROV-1, with HCT-116 and with 786-0 was > 100 µM (inactive) throughout. The GI50 in the assay on RPMI-8226 is > 100 µM (inactive); with ACHN, > 100 µM (inactive); in the assay with Malme-3M, 80.2 µM (inactive); in the assay with NCI-H23, > 100 µM (inactive); in the assay on OVCAR-5, > 100 µM (inactive); in the assay on MDA-N, > 100 µM (inactive). The GI50 in the assay with RXF 393, in the assay with HT-29, in the assay with SK-MEL-2, with UACC-257, with SW-620 and with NCI-H226 was > 100 µM (inactive) throughout. Besides, the GI50 with OVCAR-4 is > 100 µM (inactive).
`COc1cc(N(C)C)c(OC)cc1/C=C\c1ccnc2ccccc12`: the GI50 in the assay with SF-295 is 2.86 µM (inactive); with KM12, 0.46 µM (active); in the assay with Hs-578T it was 3.25 µM (inactive); with IGROV-1, 0.824 µM (active); in the assay with HCT-116, 3.09 µM (inactive); with 786-0, 4.49 µM (inactive). The GI50 was 2.71 µM (inactive) in the assay with RPMI-8226; 6.12 µM (inactive) in the assay with ACHN; 4.86 µM (inactive) in the assay with Malme-3M; 3.86 µM (inactive) in the assay with NCI-H23; > 10 µM (inactive) in the assay on OVCAR-5; 1.71 µM (inactive) in the assay with MDA-N. In addition, the GI50 was > 10 µM (inactive) with RXF 393; 3.1 µM (inactive) in the assay on HT-29; 2.66 µM (inactive) in the assay with SK-MEL-2; 3.73 µM (inactive) in the assay with UACC-257; 4.68 µM (inactive) with SW-620; 8.83 µM (inactive) in the assay with NCI-H226. For the same compound, in the assay with OVCAR-4, the GI50 is > 10 µM (inactive).
On to `Cc1ccc(C(=O)CCl)o1`, for which the GI50 in the assay with SF-295 is > 10 µM (inactive); with KM12, > 10 µM (inactive); in the assay on Hs-578T, > 10 µM (inactive); in the assay with IGROV-1 it was > 9.68 µM (inactive); with HCT-116, 1.86 µM (inactive); in the assay with 786-0, 4.28 µM (inactive). For the same compound, the GI50 in the assay on RPMI-8226 was 2.33 µM (inactive); with ACHN it was > 10 µM (inactive); in the assay on Malme-3M it was 3.18 µM (inactive); with NCI-H23, 5.37 µM (inactive); with OVCAR-5 it was > 5.6 µM (inactive); with MDA-N it was > 7.08 µM (inactive). The GI50 in the assay on RXF 393 is > 9.31 µM (inactive); with HT-29, 4.71 µM (inactive); in the assay on SK-MEL-2, > 10 µM (inactive); in the assay on UACC-257, > 9.2 µM (inactive); with SW-620, 2.3 µM (inactive); with NCI-H226, > 10 µM (inactive). Also, the GI50 with OVCAR-4 is 4.15 µM (inactive).
Take `Cc1cc(=O)oc2cc(OC(=O)Nc3ccccc3)ccc12`: the GI50 is > 100 µM (inactive) in the assay on SF-295; 32.4 µM (inactive) in the assay with KM12; 64.4 µM (inactive) in the assay on Hs-578T; 69.8 µM (inactive) in the assay with IGROV-1; 47.8 µM (inactive) in the assay on HCT-116; > 100 µM (inactive) with 786-0. Moreover, the GI50 with RPMI-8226 was 25.4 µM (inactive); with ACHN, 74 µM (inactive); with Malme-3M it was > 100 µM (inactive); in the assay on NCI-H23, 69.5 µM (inactive); with OVCAR-5, > 100 µM (inactive); with MDA-N, > 100 µM (inactive). The GI50 was 92.7 µM (inactive) in the assay with RXF 393; > 100 µM (inactive) with HT-29; > 100 µM (inactive) with SK-MEL-2; > 100 µM (inactive) in the assay with UACC-257; 62.8 µM (inactive) with SW-620; 73.1 µM (inactive) in the assay on NCI-H226. For the same compound, the GI50 in the assay with OVCAR-4 was > 100 µM (inactive).
Turning to `CC(=O)Nc1c(C)cc2c(nc3n2CCC3OC(C)=O)c1[N+](=O)[O-]` (stereo not given), the GI50 in the assay on SF-295, in the assay on KM12, in the assay with Hs-578T, with IGROV-1, with HCT-116 and in the assay with 786-0 was > 100 µM (inactive) each time. For the same compound, the GI50 with RPMI-8226, in the assay on ACHN, in the assay with Malme-3M, in the assay on NCI-H23, with OVCAR-5 and in the assay with MDA-N was > 100 µM (inactive) throughout. The GI50 in the assay on RXF 393 was 7.98 µM (inactive); in the assay on HT-29 it was > 100 µM (inactive); in the assay with SK-MEL-2, > 100 µM (inactive); in the assay with UACC-257 it was > 100 µM (inactive); in the assay on SW-620, > 100 µM (inactive); in the assay with NCI-H226, > 100 µM (inactive). In addition, the GI50 in the assay on OVCAR-4 was > 100 µM (inactive).
For the compound `Cc1cn(C2CC(N)C(CN)O2)c(=O)[nH]c1=O` (stereo not given), the GI50 in the assay with SF-295, with KM12, with Hs-578T, in the assay with IGROV-1, in the assay on HCT-116 and in the assay on 786-0 was > 100 µM (inactive) throughout. Also, the GI50 was > 100 µM (inactive) in the assay with RPMI-8226; > 100 µM (inactive) with ACHN; > 100 µM (inactive) in the assay on Malme-3M; > 100 µM (inactive) with NCI-H23; > 100 µM (inactive) in the assay on OVCAR-5; 35.6 µM (inactive) in the assay with MDA-N. Besides, the GI50 in the assay with RXF 393 is > 100 µM (inactive); in the assay with HT-29, > 100 µM (inactive); in the assay on SK-MEL-2, > 100 µM (inactive); in the assay on UACC-257 it was > 100 µM (inactive); with SW-620 it was > 100 µM (inactive); in the assay with NCI-H226, 40.6 µM (inactive). In the assay on OVCAR-4, the GI50 is > 100 µM (inactive).
For the compound `COc1ccc2c3c([nH]c2c1)CCN(CCCC(=O)c1ccc(F)cc1)C3`, the GI50 in the assay with SF-295 was 15.7 µM (inactive); in the assay on KM12, 19.7 µM (inactive); with Hs-578T, 6.56 µM (inactive); with IGROV-1 it was 18.4 µM (inactive); in the assay on HCT-116, 12.2 µM (inactive); with 786-0 it was 14.1 µM (inactive). Further, the GI50 in the assay on RPMI-8226 is 16.7 µM (inactive); with ACHN, 17.1 µM (inactive); with Malme-3M it was 13.4 µM (inactive); in the assay with NCI-H23 it was 19.4 µM (inactive); in the assay with OVCAR-5 it was 13.8 µM (inactive); with MDA-N, 20 µM (inactive). The GI50 in the assay on RXF 393 is 14.2 µM (inactive); with HT-29, 4.91 µM (inactive); in the assay with SK-MEL-2, 17.5 µM (inactive); with UACC-257, 17.6 µM (inactive); in the assay on SW-620, 17 µM (inactive); in the assay on NCI-H226, 16.5 µM (inactive). In addition, the GI50 with OVCAR-4 was 16.8 µM (inactive).
